Laboratory results: PMC4302236, “Functional profile of a novel modulator of serotonin, dopamine, and glutamate neurotransmission” (Psychopharmacology, 2014)
pIC50, pKi: −log10 of the molar value. Where two headings read alike, the source gives them in different places.

What was measured:
[1] = test system: extracellular dopamine; test: In vivo microdialysis of dopamine and DOPAC in striatum and prefrontal cortex; settings: rats
Experimental: On the day of the experiment (24–48 h after surgery), the microdialysis probes of each animal were connected via the use of flexible PEEK tubing to a microperfusion pump (Harvard Apparatus, PHD 2000 Holliston, MA). Artificial CSF, composed of 147 mM NaCl, 3 mM KCl, 1.2 mM CaCl2, and 1.2 mM MgCl2 was used to perfuse the probes (1.5 μl/min) beginning at 75 min prior to drug treatment. Baseline dialysate collection was begun for all rats 60 min prior to drug administration (t=−60 min) such that a total of […] were collected prior to drug treatment (t=0). […] A control group of rats (N=9) received only the 0.5 % methylcellulose vehicle solution, delivered orally (p.o.). All drug solutions were delivered in a volume of 1 ml/kg of body weight. Every 20 min for the following 3 h, dialysate was collected from both brain regions of each rat. Dialysates were collected into mini-vials containing 7.5 μl of 0.02 M formic acid using an automated fraction collector Univentor 820, Malta. Tubes containing dialysate samples were then frozen at −80 °C until analyzed by HPLC for levels of dopamine and the dopamine metabolite, DOPAC. […] Coronal sections were prepared of each rat brain to verify the position of the dialysis collection probes. Dopamine and DOPAC concentrations were determined in each sample using HPLC separation and electrochemical detection. An aliquot (20 μl) of each dialysate sample was injected onto the HPLC column by means of a refrigerated microsampler system, consisting of a syringe pump (Gilson, model 402), a multi-column injector (Gilson, model 233 XL), and a temperature regulator (Gilson, model 832). The chromatographic separation was performed on a reverse-phase 150 ×2.1 mm (3 μm) C18 Thermo BDS Hypersil column (Keystone Scientific). […] The mobile phase was run at a flow rate of 0.35 ml/min using an HPLC pump (Shimadzu, model LC-10AD vp). Dopamine and DOPAC were electrochemically detected using a potentiostat (Antec Leyden, model Intro) fitted with a glassy carbon electrode set a +500 mV versus Ag/AgCl (Antec, Leyden). Data were analyzed using Chromatography Data System software (Shimadzu, Class-VP, Japan) using an external standard method to quantify concentrations of dopamine and DOPAC. […] Drug effects were expressed as percentages of basal level (mean±SEM) within the same subject. Statistical analysis was performed using Sigmastat for Windows (SPSS Corporation). Drug effects were compared with baseline and vehicle control using a two-way ANOVA for repeated measurements followed by the Newman–Keuls post hoc test. […] For all tests, the level of statistical significance was set at p<0.05.

[2] = target: T1, Histamine H1 receptor (Bos taurus, UniProt P30546); test: Histamine H1 receptor binding in bovine cerebellum (3H-pyrilamine)
T1 construct: tissue NovaScreen/Caliper/Perkin-Elmer; host or cells: bovine cerebellum
Experimental: Binding activity at a variety of receptor targets, including recombinant human serotonin receptors and rat dopamine D2 and human recombinant dopamine D4 receptors, was measured in vitro using standard radioligand displacement methods (NovaScreen/Caliper/Perkin-Elmer, Hanover, MD), to determine affinity. […] D2 receptor binding was measured at rat recombinant receptors expressed in Chinese hamster ovary (CHO) cells and using ^3H-methylspiperone as a radioligand and in rat striatum using ^3H-sulpiride as a radioligand. […] D4 receptor binding was measured at human recombinant receptor s expressed in CHO cells and using ^3 H-methylspiperone as a radioligand. D1 receptor binding at human recombinant receptor was measured in CHO cells using ^3H-SCH23390 as a radioligand. 5-HT2C receptor binding was measured in pig choroid plexus using ^3 H-methylsergide as a radioligand. Binding to alpha adrenergic receptors in the rat frontal cortex (alpha1A) or rat liver (alpha1B) was measured using ^3H-prazosin as a radioligand. Histamine H1 receptor binding was measured in bovine cere- bellum using ^3H-pyrilamine as a radioligand. […] The affinity constant (Ki) for each receptor subtype or inhibitory concentration 50 (IC50) for inhibition in functional assays was calculated.

[3] = test system: forelimb catalepsy; settings: mouse, in vivo
Experimental: Forelimb catalepsy was measured using the bar grip test. Mice were placed in a Lucite mouse cage outfitted with a 3-mm diameter wooden rod suspended 4 cm from the floor of the cage. During testing, the mouse was allowed to grip the bar firmly with hind legs placed firmly on the floor of the cage. The mouse was required to maintain this posture for at least 10 s for a valid test session. Catalepsy was then quantitated by recording the latency (in seconds) to step both front paws down to the floor of the cage up to a maximum time of 120 s. If the mouse stepped off the bar immediately (less than 10 s), another attempt was made up to a maximum of ten attempts. The longest duration of immobility was recorded if none of the ten attempts were beyond 10 s. Catalepsy was measured for each mouse at 2, 3, 4, and 6 h after drug administration. Mean forelimb catalepsy time (in seconds) was calculated across each group and time point. Data were analyzed using ANOVA with Newman–Keuls post hoc test.

[4] = target: 5-HT2A receptor (Homo sapiens, UniProt P28223); settings: read-out: IC50, antagonism of serotonin-induced increase in calcium fluorescence; serotonin 30 nM
[5] = test system: striatal dopamine metabolism; test: Striatal dopamine metabolism (HPLC-EC of DA, DOPAC, HVA); format: in vivo, mice; settings: for DOPAC/DA, chronic (21 day) dosing, mean / HVA/DA, chronic (21 day) dosing, mean: striatum 2 h after last dose; for DOPAC/DA, acute (2 h) dosing, mean / HVA/DA, acute (2 h) dosing, mean: striatum 2 h after dose
Experimental: Measurements of tissue dopamine levels were performed at CDC-NIOSH. […] Striatum was rapidly dissected from each mouse brain, weighed, and placed into Eppendorf tubes that were frozen in liquid nitrogen and stored at -80 °C. […] Tissues were homogenized in 100 μl of ice-cold 0.2 M perchloric acid containing 1 μM dihydroxybenzylamine (DHBA) as an internal standard and centrifuged at 10,000×g for 10 min at 4 °C. The supernatant was filtered through a 0.2 μm nitrocellulose membrane, and an aliquot (10 μl) was injected from a temperature-controlled (4 °C) automatic sample injector (Waters 717plus Autosampler) connected to a Waters 515 HPLC pump. Catecholamines were separated on a C18 reverse-phase column ([…]; Waters […] 25 cm×4.6 mm; 5 μm), electrochemically detected (Waters 464 Pulsed Electrochemical Detector; range 10 nA, potential +0.7 V), and analyzed using Millennium software. […] A flow rate of 1 ml/min was used. […] The recovery of each analyte was adjusted with respect to the internal standard and quantified from a standard curve. The levels of dopamine and its metabolites, DOPAC and HVA, were calculated from the AUC values for each (based on microgram per gram (μg/g) tissue wet weight) and expressed as a percent of the saline control.

[6] = test system: phospho-serine (S) 9 GSK-3β; settings: mouse, in vivo; for Phospho-S9 GSK-3β, PFC / Phospho-S9 GSK-3β, accumbens / Phospho-S9 GSK-3β, striatum: po
Experimental: Each brain was rapidly removed from the skull. Nucleus accumbens, striatum, and prefrontal cortex were dissected free-hand, frozen in liquid nitrogen, and stored at −80 °C until analyzed for phosphoprotein levels. […] Levels of phospho-GSK-3β were normalized for total levels of GSK-3β and expressed as a percent of phosphoprotein levels in the vehicle-injected controls.

[7] = 1 mg/kg p.o. once daily 21 days
[8] = 3 mg/kg p.o. once daily 21 days
[9] = 10 mg/kg p.o. once daily 21 days

T1 sequence (P30546 whole entry): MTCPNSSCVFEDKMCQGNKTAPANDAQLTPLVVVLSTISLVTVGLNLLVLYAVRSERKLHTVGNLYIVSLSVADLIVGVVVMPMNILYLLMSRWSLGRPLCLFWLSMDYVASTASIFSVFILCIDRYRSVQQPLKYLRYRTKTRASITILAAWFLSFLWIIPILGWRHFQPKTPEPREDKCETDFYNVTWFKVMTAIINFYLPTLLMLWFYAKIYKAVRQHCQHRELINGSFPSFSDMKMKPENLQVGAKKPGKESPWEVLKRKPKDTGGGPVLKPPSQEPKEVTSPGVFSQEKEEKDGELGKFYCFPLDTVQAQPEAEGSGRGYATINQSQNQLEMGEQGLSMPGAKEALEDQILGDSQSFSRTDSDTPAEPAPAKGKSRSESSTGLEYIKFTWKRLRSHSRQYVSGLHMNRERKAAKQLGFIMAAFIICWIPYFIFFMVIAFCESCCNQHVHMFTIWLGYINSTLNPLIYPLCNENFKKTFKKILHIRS
Sequence of 5-HT2A receptor (P28223 whole entry): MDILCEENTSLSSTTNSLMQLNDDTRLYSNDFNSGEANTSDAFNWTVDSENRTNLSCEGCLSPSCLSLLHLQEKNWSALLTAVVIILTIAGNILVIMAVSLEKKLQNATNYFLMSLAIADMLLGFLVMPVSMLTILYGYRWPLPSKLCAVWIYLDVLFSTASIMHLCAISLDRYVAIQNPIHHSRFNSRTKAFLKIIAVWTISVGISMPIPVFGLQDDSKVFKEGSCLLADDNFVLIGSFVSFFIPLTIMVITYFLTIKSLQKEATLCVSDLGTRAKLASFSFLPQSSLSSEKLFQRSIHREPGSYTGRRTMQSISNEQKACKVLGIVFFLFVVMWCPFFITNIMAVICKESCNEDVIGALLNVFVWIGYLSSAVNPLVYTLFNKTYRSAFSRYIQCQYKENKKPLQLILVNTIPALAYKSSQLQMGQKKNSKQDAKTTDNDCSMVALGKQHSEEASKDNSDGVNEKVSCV

SMILES: CN1CCN2c3c(cccc31)[C@@H]1CN(CCCC(=O)c3ccc(F)cc3)CC[C@@H]12 [ITI-007, 1-(4-fluoro-phenyl)-4-((6bR,10aS)-3-methyl-2,3,6b,9,10,10a-hexahydro-1H,7H-pyrido[3′,4′:4,5]pyrrolo[1,2,3-de]quinoxalin-8-yl)-butan-1-one]
- DA efflux in mPFC ([1]; 3 mg/kg p.o., p<0.05): significantly increased
- DA efflux in mPFC ([1]; 10 mg/kg p.o., trend toward an increase): not statistically significant
- Binding to histamine H1 receptors [2]: no significant binding
- pKi ([2]; radioligand displacement, unit inferred): < 6.00
- Cataleptogenic activity [3]: no demonstrable cataleptogenic activity
- Forelimb catalepsy, bar grip test ([3]; po, 30 mg/kg): statistically significant increase in forelimb catalepsy
- pIC50 [4]: 8.15
- DOPAC/DA, chronic (21 day) dosing, mean [5, 7]: 4.69
- HVA/DA, chronic (21 day) dosing, mean [5, 7]: 9.44
- DOPAC/DA, acute (2 h) dosing, mean ([5]; 1 mg/kg p.o. once): 4.98
- HVA/DA, acute (2 h) dosing, mean ([5]; 1 mg/kg p.o. once): 8.06
- DOPAC/DA, chronic (21 day) dosing, mean [5, 8]: 4.54
- HVA/DA, chronic (21 day) dosing, mean [5, 8]: 7.99
- DOPAC/DA, acute (2 h) dosing, mean ([5]; 3 mg/kg p.o. once): 4.57
- HVA/DA, acute (2 h) dosing, mean ([5]; 3 mg/kg p.o. once): 7.47
- DOPAC/DA, chronic (21 day) dosing, mean [5, 9]: 5.80
- HVA/DA, chronic (21 day) dosing, mean [5, 9]: 10.47
- DOPAC/DA, acute (2 h) dosing, mean ([5]; 10 mg/kg p.o. once): 6.02
- HVA/DA, acute (2 h) dosing, mean ([5]; 10 mg/kg p.o. once): 8.40
- Effect on S9 GSK-3β phosphorylation in striatum at any dose tested [6]: no significant effect
- Phospho-S9 GSK-3β, PFC ([6]; 3 mg/kg): 103.4±3.1 % vehicle control
- Phospho-S9 GSK-3β, accumbens ([6]; 3 mg/kg): 122.9±8.6 % vehicle control
- Phospho-S9 GSK-3β, striatum ([6]; 3 mg/kg): 106.6±2.1 % vehicle control
- Phospho-S9 GSK-3β, striatum ([6]; 10 mg/kg): 98.2±5.1 % vehicle control
- Phospho-S9 GSK-3β, PFC ([6]; 30 mg/kg): 112.1±2.7 % vehicle control
- Phospho-S9 GSK-3β, accumbens ([6]; 30 mg/kg): 105.5±2.2 % vehicle control
- Phospho-S9 GSK-3β, striatum ([6]; 30 mg/kg): 108.0±2.9 % vehicle control
